Some results are limits rather than exact numbers.

As usually defined, the Kd is the equilibrium constant for the complex coming apart. A higher Kd goes with weaker binding.

For the assay, the target named is Tyrosine-protein kinase JAK2 [Y1007F,Y1008F] (Homo sapiens, UniProt O60674, Y1007F/Y1008F). Nature of the assay: JAK2 Binding Assay. On the procedure: JAK2 (JH1 domain-catalytic, Y1007F, Y1008F) kinase was expressed as N-terminal fusion to the DNA binding domain of NFkB in transiently transfected HEK293 cells and subsequently tagged with DNA for qPCR detection. Streptavidin-coated magnetic beads were treated with biotinylated small molecule ligands for 30 minutes at room temperature to generate affinity resins for kinase assays. The liganded beads were blocked with excess biotin and washed with blocking buffer (SeaBlock (Pierce), 1% BSA, 0.05% Tween 20, 1 mmol/L DTT) to remove unbound ligand and to reduce nonspecific phage binding. Binding reactions were assembled by combining kinases, liganded affinity beads, and test compounds in 1× binding buffer (1× PBS, 0.05% Tween 20, 0.1% BSA, 1 mmol/L DTT). Test compound was prepared as 111× stocks in 100% DMSO and directly diluted into the assay wells. All reactions were performed in polypropylene 384-well plates in a final volume of 0.02 mL. The assay plates were incubated at room temperature with shaking for 1 hour and the affinity beads were washed with wash buffer (1× PBS, 0.05% Tween 20). The beads were then re-suspended in elution buffer (1× PBS, 0.05% Tween 20, 0.5 μmol/L non-biotinylated affinity ligand) and incubated at room temperature with shaking for 30 minutes. The kinase concentration in the eluate was measured by qPCR.
Sequence of Tyrosine-protein kinase JAK2 [Y1007F,Y1008F] (O60674 whole entry Y1007F/Y1008F, the tested form may be a part): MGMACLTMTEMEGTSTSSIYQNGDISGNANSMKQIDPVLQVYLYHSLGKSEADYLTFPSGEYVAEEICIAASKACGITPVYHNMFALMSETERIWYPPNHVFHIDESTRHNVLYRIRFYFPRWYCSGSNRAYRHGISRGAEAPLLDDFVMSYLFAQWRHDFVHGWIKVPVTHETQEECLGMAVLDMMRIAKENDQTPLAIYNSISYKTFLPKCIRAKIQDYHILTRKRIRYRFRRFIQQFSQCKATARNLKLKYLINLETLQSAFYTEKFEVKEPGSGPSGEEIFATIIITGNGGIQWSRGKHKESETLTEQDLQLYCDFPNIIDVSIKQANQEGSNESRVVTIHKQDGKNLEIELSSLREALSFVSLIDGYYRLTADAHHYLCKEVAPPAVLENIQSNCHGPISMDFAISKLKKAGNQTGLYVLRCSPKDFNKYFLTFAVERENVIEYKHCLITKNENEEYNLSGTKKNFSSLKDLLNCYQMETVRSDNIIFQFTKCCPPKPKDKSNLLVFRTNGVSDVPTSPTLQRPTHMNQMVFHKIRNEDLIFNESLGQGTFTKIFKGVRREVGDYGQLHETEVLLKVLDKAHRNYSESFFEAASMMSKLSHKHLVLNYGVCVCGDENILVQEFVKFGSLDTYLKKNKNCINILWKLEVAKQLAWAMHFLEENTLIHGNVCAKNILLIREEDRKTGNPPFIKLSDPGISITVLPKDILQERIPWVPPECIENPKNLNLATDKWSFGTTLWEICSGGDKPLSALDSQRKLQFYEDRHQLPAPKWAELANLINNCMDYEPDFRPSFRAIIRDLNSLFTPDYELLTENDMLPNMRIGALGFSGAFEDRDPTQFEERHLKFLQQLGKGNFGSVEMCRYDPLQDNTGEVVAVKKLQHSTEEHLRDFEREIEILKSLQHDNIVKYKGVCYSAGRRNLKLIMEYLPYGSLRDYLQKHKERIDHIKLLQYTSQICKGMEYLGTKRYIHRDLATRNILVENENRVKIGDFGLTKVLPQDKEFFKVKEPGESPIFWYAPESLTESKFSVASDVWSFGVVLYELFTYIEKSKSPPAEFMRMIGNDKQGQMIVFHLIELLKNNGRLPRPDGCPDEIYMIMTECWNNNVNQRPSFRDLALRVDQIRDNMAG
`CN(C(=O)Nc1cc(C(F)(F)F)cn(C)c1=O)C12CC(c3cnc4[nH]ccc4c3)(C1)C2` [US20240116892, Compound I-121] showed a Kd of less than 10 nM. For the compound `CN(C(=O)Nc1cc(C(F)(F)F)cn(C)c1=O)[C@@H]1CCN(c2cnc3[nH]ncc3c2)C[C@@H]1F` [US20240116892, Compound I-62-b], the Kd was less than 10 nM. In turn, `Cn1cc(C(F)(F)F)cc(NC(=O)N2CCO[C@@H]3CN(c4cnc(NC(=O)C5CC5)cn4)CC[C@H]32)c1=O` [US20240116892, Compound I-148-b] registered a Kd of less than 10 nM.
